# Reference: patent US10668159B2, “Anti-methanogenic compositions and uses thereof” (Cedars-Sinai Medical Center, priority 2014, dated 2020)
# Assays:
# [1] = pylorus-ligated rats, within 30 min; cited from earlier work
# M. smithii = test: Lovastatin gavage in M. smithii colonized high-fat diet rats, qPCR of bowel segments; assay type: in vivo, Sprague-Dawley rats; settings: 1.5 mg/rat gavaged daily for 10 days
# Experimental: The rats were assessed for increased M. smithii by qPCR before and after the diet, and then divided into 3 groups. Group 1 was given lovastatin in its lactone form, Group 2 was given lovastatin hydroxy acid (each 1.5 mg/rat), and Group 3 was gavaged with a placebo. Each group was gavaged daily for 10 days. Three day stool collections were performed to assess average stool wet weight and daily variability prior to commencing the high fat diet, after 7 weeks of high-fat diet, and the final days of the lovastatin gavage (still on high-fat diet). On day 10 of the gavage, rats were euthanized and DNA was extracted from contents of ligated bowel segments (duodenum, jejunum, ileum, cecum and left colon). qPCR was performed using primers for total luminal bacteria and M. smithii.
# [2] = Binary stress testing of 1:1 lovastatin/excipient mixtures, HPLC; settings: range of temperature and humidity conditions, 7 days
# Experimental: The compatibility of lovastatin drug substance with formulation excipients was evaluated in binary stress testing studies where 1:1 mixtures of lovastatin and each excipient were stored for 7 days under different conditions of temperature and relative humidity (RH). Samples were analyzed by HPLC (based on USP methods) at day 0 and day 7.
# [3] = system: human and rat fecal bacterial enzyme fractions; settings: over a 12 h period; cited from earlier work
# [4] = after oral administration; cited from earlier work
SMILES,fraction of an intragastric dose that exited the gastric juice [1],M. smithii levels in the colon (M. smithii),stability in binary stress testing [2],loss of lovastatin lactone [3],pre-portal hydrolysis in vivo [4],ratio of M. smithii to total bacteria in the ileum (M. smithii; versus placebo)
CC[C@H](C)C(=O)O[C@H]1C[C@@H](C)C=C2C=C[C@H](C)[C@H](CC[C@@H](O)C[C@@H](O)CC(=O)O)[C@H]21 [lovastatin β-hydroxyacid],~30%,unaffected,,,,
CC[C@H](C)C(=O)O[C@H]1C[C@@H](C)C=C2C=C[C@H](C)[C@H](CC[C@@H]3C[C@@H](O)CC(=O)O3)[C@H]21 [Lovastatin],~30%,unaffected,stable,8-19%,~10%,reduced
